# Measured values reported in PubChem BioAssay (NCI).
#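 Interpolation was linear, between the two tested concentrations surrounding the appropriate level; five concentrations were tested over 48 hours in 96-well plates. At the GI50, growth is halved. TGI denotes the concentration required for complete inhibition of growth.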
# Columns and labels:
# Assay in all cases: DTP human tumour cell line panel, 48 h
# [1] = tested on: 786-0 renal
# [2] = tested on: A498 renal
# [3] = tested on: A549 NSCLC
# [4] = tested on: ACHN renal
# [5] = tested on: BT-549 breast
# [6] = tested on: CAKI-1 renal
# [7] = tested on: CCRF-CEM leukemia
# [8] = tested on: COLO 205 colon
# [9] = tested on: DU-145 prostate
# [10] = tested on: EKVX NSCLC
# [11] = tested on: HCC-2998 colon
# [12] = tested on: HCT-15 colon
# [13] = tested on: HL-60(TB) leukemia
# [14] = tested on: HOP-62 NSCLC
# [15] = tested on: HOP-92 NSCLC
# [16] = tested on: HS 578T breast
# [17] = tested on: HT29 colon
# [18] = tested on: IGROV1 ovarian
# [19] = tested on: K-562 leukemia
# [20] = tested on: KM12 colon
# [21] = tested on: LOX IMVI melanoma
# [22] = tested on: M14 melanoma
# [23] = tested on: MALME-3M melanoma
# [24] = tested on: MCF7 breast
# [25] = tested on: MDA-MB-231 breast
# [26] = tested on: MDA-MB-435
# [27] = tested on: MOLT-4 leukemia
# [28] = tested on: NCI-H226 lung
# [29] = tested on: NCI-H23 lung
# [30] = tested on: NCI-H460 lung
# [31] = tested on: NCI-H522 lung
# [32] = tested on: NCI/ADR-RES ovarian
# [33] = tested on: OVCAR-3 ovarian
# [34] = tested on: OVCAR-4 ovarian
# [35] = tested on: OVCAR-5 ovarian
# [36] = tested on: OVCAR-8 ovarian
# [37] = tested on: PC-3 prostate
# [38] = tested on: RPMI-8226 leukemia
# [39] = tested on: RXF 393 renal
# [40] = tested on: SF-268 CNS
# [41] = tested on: SF-295 CNS
# [42] = tested on: SF-539 CNS
# [43] = tested on: SK-MEL-2 melanoma
# [44] = tested on: SK-MEL-28 melanoma
# [45] = tested on: SK-MEL-5 melanoma
# [46] = tested on: SK-OV-3 ovarian
# [47] = tested on: SN12C renal
# [48] = tested on: SNB-19 CNS
# [49] = tested on: SNB-75 CNS
# [50] = tested on: SR leukemia
# [51] = tested on: SW-620 colon
# [52] = tested on: T-47D breast
# [53] = tested on: TK-10 renal
# [54] = tested on: U251 CNS
# [55] = tested on: UACC-257 melanoma
# [56] = tested on: UACC-62 melanoma
# [57] = tested on: UO-31 renal
smiles,measurement,setting,value
Cc1[nH]nc2ncc(C#Cc3cncc(C(=O)Nc4ccc(CN5CCN(C)CC5)c(C(F)(F)F)c4)c3)cc12,GI50,[1],173 nM
same,TGI,[1],1790 nM
same,GI50,[2],218 nM
same,TGI,[2],1240 nM
same,GI50,[3],453 nM
same,TGI,[3],> 100000 nM
same,GI50,[4],126 nM
same,GI50,[5],301 nM
same,TGI,[5],7250 nM
same,GI50,[6],64.7 nM
same,TGI,[6],994 nM
same,GI50,[7],293 nM
same,TGI,[7],> 27500 nM
same,GI50,[8],287 nM
same,TGI,[8],1910 nM
same,GI50,[9],152 nM
same,GI50,[10],294 nM
same,GI50,[11],488 nM
same,GI50,[12],288 nM
same,TGI,[12],4040 nM
same,GI50,[13],280 nM
same,TGI,[13],16900 nM
same,GI50,[14],366 nM
same,TGI,[14],8820 nM
same,GI50,[15],123 nM
same,TGI,[15],808 nM
same,GI50,[16],87.2 nM
same,TGI,[16],929 nM
same,GI50,[17],174 nM
same,TGI,[17],8570 nM
same,GI50,[18],58.2 nM
same,TGI,[18],1730 nM
same,TGI,[19],2030 nM
same,GI50,[20],< 11.6 nM
same,GI50,[21],155 nM
same,TGI,[21],993 nM
same,GI50,[22],44.4 nM
same,TGI,[22],2070 nM
same,GI50,[23],65.4 nM
same,TGI,[23],304 nM
same,GI50,[24],772 nM
same,TGI,[24],> 100000 nM
same,GI50,[25],78.9 nM
same,TGI,[25],737 nM
same,GI50,[26],242 nM
same,TGI,[26],21100 nM
same,GI50,[27],155 nM
same,GI50,[28],124 nM
same,TGI,[28],953 nM
same,GI50,[29],439 nM
same,TGI,[29],> 100000 nM
same,GI50,[30],147 nM
same,TGI,[30],4640 nM
same,GI50,[31],124 nM
same,TGI,[31],4730 nM
same,GI50,[32],5770 nM
same,TGI,[32],> 25300 nM
same,GI50,[33],401 nM
same,GI50,[34],582 nM
same,GI50,[35],418 nM
same,GI50,[36],413 nM
same,GI50,[37],330 nM
same,TGI,[37],> 21800 nM
same,GI50,[38],426 nM
same,GI50,[39],75.2 nM
same,TGI,[39],600 nM
same,GI50,[40],289 nM
same,GI50,[41],286 nM
same,GI50,[42],158 nM
same,TGI,[42],1080 nM
same,GI50,[43],85.2 nM
same,TGI,[43],352 nM
same,GI50,[44],212 nM
same,TGI,[44],3740 nM
same,GI50,[45],308 nM
same,TGI,[45],12500 nM
same,GI50,[46],174 nM
same,TGI,[46],> 51800 nM
same,GI50,[47],299 nM
same,TGI,[47],11200 nM
same,GI50,[48],1030 nM
same,TGI,[48],13200 nM
same,GI50,[49],491 nM
same,TGI,[49],13600 nM
same,GI50,[50],140 nM
same,GI50,[51],183 nM
same,TGI,[51],4380 nM
same,GI50,[52],508 nM
same,TGI,[52],> 61900 nM
same,GI50,[53],441 nM
same,GI50,[54],460 nM
same,TGI,[54],28100 nM
same,GI50,[55],317 nM
same,GI50,[56],95.9 nM
same,TGI,[56],704 nM
same,GI50,[57],326 nM
same,TGI,[57],1980 nM
